Assay results from patent US5679695A, “Aryl and heteroaryl compounds having anti-retrovirus activity” (The University of Connecticut, priority 1995, dated 1997).
Values joined by “and” are separate entries in the source; they are usually repeats but may differ in a detail not shown here. Equal entries are not always repeated.

Tests used:
[1] = XTT toxicity control, uninfected culture, CEM-Z; type: cell-based; details: human, cem-z cells, read-out: Uninfected culture response
Method: (§1) Another assay for testing the efficacy of the compounds is the procedure* used in the National Cancer Institute's test for agents active against Human Immunodeficiency Virus (HIV). It is designed to detect agents acting at any stage of the virus reproductive cycle. The assay basically involves the killing of T4 lymphocytes by HIV. Small amounts of HIV are added to cells, and a complete cycle of virus reproduction is necessary to obtain the required cell killing. Agents that interact with virions, cells, or virus gene-products to interfere with viral activities will protect cells from cytolysis. The system is automated in several features to accommodate large numbers of candidate agents and is generally designed to detect anti-HIV activity. However, compounds that degenerate, or are rapidly metabolized in the culture conditions may not show activity in this screen. All tests are compared with at least one positive (e.g., AZT-treated) control done at the same time under identical conditions.
(§2) * Weislow. O. W., Kiser, R., Fine, D., Bader, J., Shoemaker, R. H., Boyd, M. R.: New soluble-formazan assay for HIV-1 cytopathic effects: application to high-flux screening of synthetic and natural products for AIDS-antiviral activity. J. Natl. Cancer Inst. 81:577-586, 1989.
(§3) 1. The Candidate agent is dissolved in dimethyl sulfoxide (unless otherwise instructed) then diluted 1:100 in cell culture medium before preparing serial half-log10 dilutions. T4 lymphocytes (CEM cell line) are added and after a brief interval HIV-1 added, resulting in a 1:200 final dilution of the compound. Uninfected cells with the compound serve as a toxicity control, and infected and uninfected cells without compound serve as basic controls.
(§4) 2. Cultures are incubated at 37° in a 5% carbon dioxide atmosphere for 6 days.
(§5) 3. The tetrazolium salt, XTT, is added to all wells, and cultures are incubated to allow formazan color development by viable cells.
(§6) 4. Individual wells are analyzed spectrophotometrically to quantitate formazan production, and in addition are viewed microscopically for detection of viable cells and confirmation of protective activity.
(§7) 5. Drug-treated virus-infected cells are compared with drug-treated noninfected cells and with other appropriate controls (untreated infected and untreated noninfected: cells, drug-containing wells without cells, etc.) on the same plate.
(§8) 6. Data are reviewed in comparison with other tests done at the same time and a determination about activity is made.

CEM-Z = assay: XTT toxicity control, uninfected culture, CEM-Z; type: cell-based
Method: as §1, §2, §3, §4, §5, §6, §7, §8

[2] = XTT toxicity control, uninfected culture, CEM-V; type: cell-based; details: human, cem-v cells, read-out: Uninfected culture response
Method: as §1, §2, §3, §4, §5, §6, §7, §8

CEM-V = assay: XTT toxicity control, uninfected culture, CEM-V; type: cell-based
Method: as §1, §2, §3, §4, §5, §6, §7, §8

SC-1 cells = assay: Dye conversion (MTT formazan) assay of drug-induced cytotoxicity; type: cell-based; details: 570 nm
Method: (§9) A dye conversion assay to determine drug-induced cytotoxicity was performed. This assay is based on the conversion of MTT to a formazan product in living cells. This conversion results in a color change which can be detected spectrophotometrically. A 96-well tissue culture plate was seeded with […] per well at the time that the 6-well plates were seeded for the UV-XC plaque assay. The following day, the medium was decanted and the cell control cultures received 100 ul of medium. The drug controls received 80 ul of drug and 20 ul of medium such that the final concentration of drug was equivalent to that used in the 6-well plates. On day 3 after addition of the drug, 50 ul of a 2 mg/ml solution of MTT in EMEM with 5% heat-inactivated FBS were added each well. The culture was incubated for 7 hours and 100 ul of a 10% SDS: 0.01 N HCL solution was added to each well. The culture was incubated overnight and the following morning the optical density (O.D.) was read at 570 nm wavelength on a Perkin-Elmer spectrophotometer. The percent reduction in the drug-treated cell. O.D. reading compared to the control cell O.D. reading was calculated.
(§10) Using the procedure, the following data is generated from representative compounds of the presnet invention.

[3] = as above; type: cell-based; details: mouse, sc-1 cells; for cytotoxicity at 72 h, 1000 µM / viability at 72 h, 1000 µM: 1 × 10^-3 M; for cytotoxicity at 72 h, 1000 µM / cytotoxicity at 72 h, 100 µM / cytotoxicity at 72 h, 10 µM / cytotoxicity at 72 h, 1 µM / cytotoxicity at 72 h, 0.1 µM / cytotoxicity at 72 h, 0.01 µM: read-out: % Reduction; for viability at 72 h, 1000 µM / viability at 72 h, 100 µM / viability at 72 h, 10 µM / viability at 72 h, 1 µM / viability at 72 h, 0.1 µM / viability at 72 h, 0.01 µM: read-out: % of Control; for cytotoxicity at 72 h, 100 µM / viability at 72 h, 100 µM: 1 × 10^-4 M; for cytotoxicity at 72 h, 10 µM / viability at 72 h, 10 µM: 1 × 10^-5 M; for cytotoxicity at 72 h, 1 µM / viability at 72 h, 1 µM: 1 × 10^-6 M; for cytotoxicity at 72 h, 0.1 µM / viability at 72 h, 0.1 µM: 1 × 10^-7 M; for cytotoxicity at 72 h, 0.01 µM / viability at 72 h, 0.01 µM: 1 × 10^-8 M
Method: as §9, §10

HIV = assay: Anti-HIV activity in MT-2; type: cell-based; details: Human immunodeficiency virus 1; MT-2, summary table; read-out: MT-2 EC50
Excerpt: Obviously, there is a structure activity relationship with respect to the efficacy of the compounds of the present invention. Factors that affect the relationship may include steric effects, electronic effects, (electron withdrawing or electron donating ability), resonance effects, hydrophobic,hydrophilic, hydrogen bonding parameters, etc. […] Based on the data, it has been determined that there is a direct correlation between the log (EC50)^-1 and the electronic effect of a substituent (a) or more precisely the sum of the sigma (σ) values. (The greater the electron withdrawing ability of a substituent, the higher the value of σ, while a better electron donating group has a lower value of σ.) There appears to be a direct correlation between log (EC50)^-1 and the Σσ; as the Σσ increases, so does the log (EC50)^-1. The addition of substituents to the diphenyl sulfone will affect the factors discussed hereinabove, thus both the log (EC50)^-1 and the Σσ will be affected. Thus for the diphenyl sulfone derivative [drawing 25] the relation is […]

[4] = Storage in a clear glass bottle; type: physicochemical; details: several weeks of storage in a clear glass bottle

## O=[N+]([O-])c1ccccc1S(=O)(=O)c1ccccc1 [Compound 1, 1-Nitro-2-(phenylsulfonyl)benzene]
[1]; 1.79 × 10^-5 Molar
  viability at 17.9 µM: 101%
[1]; 1.79 × 10^-6 Molar
  viability at 1.79 µM: 97.9%
[1]; 1.79 × 10^-7 Molar
  viability at 0.179 µM: 101%
[1]; 5.65 × 10^-5 Molar
  viability at 56.5 µM: 103%
[1]; 5.66 × 10^-6 Molar
  viability at 5.66 µM: 98.7%
[1]; 5.67 × 10^-7 Molar
  viability at 0.567 µM: 99.6%
[1]; 5.68 × 10^-8 Molar
  viability at 0.0568 µM: 101%
CEM-Z; 1.78 × 10^-4 Molar, 178 µM
  Uninfected culture response: 72.1%
CEM-Z; 1.79 × 10^-5 Molar, 17.9 µM
  Uninfected culture response: 103.0%
CEM-Z; 1.79 × 10^-6 Molar, 1.79 µM
  Uninfected culture response: 99.7%
CEM-Z; 1.79 × 10^-7 Molar, 0.179 µM
  Uninfected culture response: 102.5%
CEM-Z; 5.65 × 10^-5 Molar, 56.5 µM
  Uninfected culture response: 101.8%
CEM-Z; 5.66 × 10^-6 Molar, 5.66 µM
  Uninfected culture response: 100.0%
CEM-Z; 5.67 × 10^-7 Molar, 0.567 µM
  Uninfected culture response: 99.8%
CEM-Z; 5.68 × 10^-8 Molar, 0.0568 µM
  Uninfected culture response: 104.3%
CEM-Z; uninfected culture (toxicity)
  IC50: > 178 µM
[2]; 1.79 × 10^-7 Molar
  viability at 0.179 µM: 123%
[2]; 1.89 × 10^-4 Molar
  viability at 189 µM: 86.7%
[2]; 1.89 × 10^-5 Molar
  viability at 18.9 µM: 99.9%
[2]; 1.89 × 10^-6 Molar
  viability at 1.89 µM: 97.9%
[2]; 1.90 × 10^-7 Molar
  viability at 0.19 µM: 96.9%
[2]; 5.98 × 10^-5 Molar
  viability at 59.8 µM: 105%
[2]; 5.99 × 10^-6 Molar
  viability at 5.99 µM: 111%
[2]; 6.00 × 10^-7 Molar
  viability at 0.6 µM: 90.4%
[2]; 6.01 × 10^-8 Molar
  viability at 0.0601 µM: 105%
CEM-V; 1.79 × 10^-7 Molar, 0.179 µM
  Uninfected culture response: 106.5%
CEM-V; 1.89 × 10^-4 Molar, 189 µM
  Uninfected culture response: 89.8%
CEM-V; 1.89 × 10^-5 Molar, 18.9 µM
  Uninfected culture response: 100.7%
CEM-V; 1.89 × 10^-6 Molar, 1.89 µM
  Uninfected culture response: 104.6%
CEM-V; 1.90 × 10^-7 Molar, 0.19 µM
  Uninfected culture response: 105.1%
CEM-V; 5.67 × 10^-7 Molar, 0.567 µM
  Uninfected culture response: 112.5% and 77.9%
CEM-V; 5.68 × 10^-8 Molar, 0.0568 µM
  Uninfected culture response: 120.4% and 99.0%
CEM-V; 5.98 × 10^-5 Molar, 59.8 µM
  Uninfected culture response: 99.2%
CEM-V; 5.99 × 10^-6 Molar, 5.99 µM
  Uninfected culture response: 111.3%
CEM-V; 6.00 × 10^-7 Molar, 0.6 µM
  Uninfected culture response: 98.3%
CEM-V; 6.01 × 10^-8 Molar, 0.0601 µM
  Uninfected culture response: 101.6%
SC-1 cells; 1 × 10^-3 M
  O.D. Reading: 0.851
SC-1 cells; 1 × 10^-4 M
  O.D. Reading: 1.320
SC-1 cells; 1 × 10^-5 M
  O.D. Reading: 1.504
SC-1 cells; 1 × 10^-6 M
  O.D. Reading: 1.522
SC-1 cells; 1 × 10^-7 M
  O.D. Reading: 1.566
SC-1 cells; 1 × 10^-8 M
  O.D. Reading: 1.530
[3]
  cytotoxicity at 72 h, 1000 µM: 45%
  viability at 72 h, 1000 µM: 55%
  cytotoxicity at 72 h, 100 µM: 15%
  viability at 72 h, 100 µM: 85%
  cytotoxicity at 72 h, 10 µM: 3%
  viability at 72 h, 10 µM: 97%
  cytotoxicity at 72 h, 1 µM: 2%
  viability at 72 h, 1 µM: 98%
  cytotoxicity at 72 h, 0.1 µM: 0%
  viability at 72 h, 0.1 µM: 101%
  cytotoxicity at 72 h, 0.01 µM: 1%
  viability at 72 h, 0.01 µM: 99%
HIV
  EC50: 1.16 µM

## Cc1ccc(S(=O)(=O)c2ccccc2[N+](=O)[O-])cc1 [Compound 2, 1-(4-Methylphenylsulfonyl)-2-nitrobenzene]
SC-1 cells; 1 × 10^-3 M
  O.D. Reading: 1.066
SC-1 cells; 1 × 10^-4 M
  O.D. Reading: 1.345
SC-1 cells; 1 × 10^-5 M
  O.D. Reading: 1.425
SC-1 cells; 1 × 10^-6 M
  O.D. Reading: 1.418
SC-1 cells; 1 × 10^-7 M
  O.D. Reading: 1.429
SC-1 cells; 1 × 10^-8 M
  O.D. Reading: 1.411
[3]
  cytotoxicity at 72 h, 1000 µM: 31%
  viability at 72 h, 1000 µM: 69%
  cytotoxicity at 72 h, 100 µM: 13%
  viability at 72 h, 100 µM: 87%
  cytotoxicity at 72 h, 10 µM: 8%
  viability at 72 h, 10 µM: 92%
  cytotoxicity at 72 h, 1 µM: 8%
  viability at 72 h, 1 µM: 92%
  cytotoxicity at 72 h, 0.1 µM: 8%
  viability at 72 h, 0.1 µM: 92%
  cytotoxicity at 72 h, 0.01 µM: 9%
  viability at 72 h, 0.01 µM: 91%
HIV
  EC50: 3.26 µM
[4]
  colour change on storage: turned light green
